Experimental data from patent US4510144A, “Methods of imparting immunomodulating activity with dihydrothiazolo purine derivatives” (Newport Pharmaceuticals International, priority 1982, dated 1985).
Entries after “also recorded” stand apart in the source; their conditions may differ.

Assays:
[1] = system: splenocytes from athymic mice (theta positive cells); assay: induction of theta positive cells in splenocytes from athymic (nude) mice in vitro; format: cell-based; settings: in vitro
Text: (4) Induction of theta positive cells in nude mice (in vitro).

[2] = system: murine spleen cells, LPS induced (B-cells); assay: LPS induced lymphocyte proliferation in mouse spleen cells in vitro; format: cell-based, mouse (Balb/C); settings: for activity at 25 µg/mL: drug 25,000 ng/ml; for effect on B-cell response / LPS induced proliferation, in words: in vitro
Text: (§1) (1) Mitogen-(Lipopolysaccharide, LPS or Con A) induced lymphocyte proliferation using murine spleen cells (in vitro)
(§2) 1. […] LPS is a mitogen which acts preferentially on B-cells. […] Con A is considered a T-cell mitogen.
(§3) 1. Balb/C male mice, 7-8 weeks old, are used up to 20-24 weeks of age.
(§4) 2. The animals are sacrificed by cervical dislocation and the animals' left sides swabbed with 70% ethanol. An incision is made between the lower ribs and pelvis, laterally from front to back, and the skin retracted. Aseptic technique is to be observed from this point on.
(§5) 3. The spleen is gently removed with sterile forceps. […] When all spleens have been collected and cleaned they are placed in a second petri dish containing 3 ml cold RPMI.
(§6) 4. Spleen cell suspensions are prepared by gentle mincing of the tissue with a sterile blade and filtering through #100 stainless steel mesh.
(§7) 6. An aliquot of the above suspension is prepared for cell counting as follows: 0.1 ml of suspension is diluted to 1.0 ml with 3% acetic acid and let stand at room temperature for at least five minutes. The sample is then diluted 1:100 with "Isoton II" (Curtis-Matheson Co.) and counted in a coulter counter.
(§8) MURINE SPLENOCYTE STIMULATION WITH CONCANAVALIN A (CON A), LIPOPOLYSACCHARIDE (LPS), AND ALLOGENEIC SPLENOCYTES (LMC).
(§9) There is set forth below the standard procedure which should be modified according to the solubility and other properties of the particular compound tested.
(§10) Add ~10 ml RPMI to 1.79 g HEPES and vortex until completely dissolved. […] Allow to warm temperature before use.
6. LPS (Sigma, E, coli serotype #011:84)--~1 mg/ml. […] Remove ~10 ml for dissolving HEPES (0.358 g) and filter HEPES solution. Add four 25 mg bottles of LPS to remaining media and incubate at 37° C. for 1 hour. Filter through 0.22 μm filters, add filtered HEPES, aliquot in 2 ml and store at -70° C.
(§11) 8. Tritiated thymidine (^3 H-TdR, Schwartz-Mann, 6 Ci/mM). Remove a slightly larger volume of ^3 H-TdR than needed from vial with a 1 cc syringe and place volume in the cap of a small sterile plastic tube. […] Vortex thoroughly before adding to plates.
(§12) 1. Animals are sacrificed by cervical dislocation killing one from each group and processing the cells individually before killing the next animal. Swab each animal with 70% ethanol before surgery. […] Use 8 vertical strokes (or enough to break up all tissue) with Teflon-tipped homogenizer. Filter each sample through a 100 mesh screen into a 50 ml tube. […] After all samples have been spun, vortex each briefly and let sit for 1 hour. Vortex each sample ~5 seconds, waiting ~10 seconds between each sample. Let sit 5 minutes, then pipet cell suspension into 5 ml (12×75 mm) tube being careful not to remove any sediment. Remove 50 ul cell suspension using micropipetter, carefully wipe pipet tip with kimwipe and pipet into 20 ml Isoton in Coulter counter vial, rinsing pipet several times in the Isoton. Add 6 drops of CyMet and swirl vial to mix. Use the following Coulter counter settings: Amplification-1, Threshold-10, and Aperture Current-1. Clean counter with Isoterge the morning of experiment and count background before standardizing with CH 0.60 Hematology Controls. After cell counts are obtained, dilute to 6×10^6 cells/ml with supplemented RPMI and aliquot into 3 tubes for the 3 assays.
(§13) 1. Pipet 100 μl control media (supplemented RPMI) or appropriate dilution of mitogen (starting with lowest concentration) into microtiter plate using Titertek multi-channel pipetter. Place plates in 37° C. CO2 incubator with CO2 set at 0.5 after each plate has been pipetted. Pipet 100 μl responder cells into wells starting with most dilute mitogen concentration. Place plates in incubator as they are filled and after all plates are in incubator, let sit for 10-20 minutes. Wrap plates with plastic wrap, recover with top, replace in incubator, and reset CO2 to ~0.05. Save ~50 ml supplemented RPMI at 4° C. for thymidine dilution.

[3] = system: antibody production to sheep red blood cells (SRBC); assay: antigen (SRBC) dependent antibody synthesis in vivo (IgM plaques); parameters: species or system Balb/C mice; settings: for effect on antibody production in vivo, in words: SRBC immunized mice; for % change from control, antibody response to SRBC: Table X
Experimental: (3) Antigen (sheep red blood cell, SRBC) dependent antibody synthesis (in vivo)
as §9
1. A solution containing 500 μg/ml NPT is prepared by adding a preweighed amount of the drup powder to sterile BPS (phosphate buffered saline) and sonicating the solution for 30 minutes.
1. NPT drug solution is made by dissolving 500 μg NPT per mil PBS.
1. A 1.4% suspension of agarose in PBS (7 g in 500 ml) is autoclaved for 15 min.
1. Mice are immunized as follows: sheep blood (sheep #23) is received weekly from Hyland labs. It is asceptically collected in two volumes of Alseviers to one volume of blood.
6. The cell count is determined and the stock solution is diluted to 4×10^7 cells/ml. This final suspension is used for immunization.
7. Each mouse is immunized by i.v. injection into the lateral tail vein (warmed in a 50° C. water bath for veinous dilation) with 0.1 ml SRBC (sheep red blood cell) suspensions; the final concentration of SRBC's is 4×10^6 per mouse.
1. Mice are treated by i.p. injection on days […], 1, 2, and 3. A syringe (1 cc) is fitted with a one-half inch, 26 gauge needle. The needle is introduced at a 45° angle along the right side of the linea alba. A 0.2 ml volume is given to both drug and control treated groups.
2. Drug groups are given 0.2 ml of a desired concentration NPT solution which, for a 20 g mouse, is […].
1. Spleens are removed asceptically and placed individually in Falcon #2025 tissue culture tubes containing 3 ml MEM. The tubes are then stored on ice.
2. Spleens are homogenized in the same tube with a teflon pestle attached to a G. K. Heller variable speed reversible motor connected with a G. K. Heller GT-21 motor controller setting #6.
6. The cell count is obtained and the stock suspension is diluted to 1×10^7 cells/ml. The Coulter counter threshhold is set at 10. Red cells are lysed with three drops of Zap isoton.
1. Thirty-five hundredths gram agarose and 0.53 grams MEM powder are placed into an Erlenmeyer flask. Fifty ml of distilled H2 O is then added to the flask.
1. Five ml sheep blood (same batch as used for immunization) is washed three times in PBS using an IEC Clinical Standard Centrifuge, speed #4 (2800 RPM) for 10 min.
1. Agar plates are removed from refrigerator and allowed to warm to room temperature. They are labeled in triplicate for each experimental group.
2. Agar-filled tubes are removed from the water bath. One-tenth of the 10% SRBC's and 0.1 ml spleen cell suspension are added to each agar tube. The tubes are agitated on a Vortex mixer.
3. The contents of the tubes are poured immediately into agar base plates and swirled until a smooth layer is formed. The plates are placed on a level surface until the agar solidifies.
4. The plates are incubated at 37° C. in a humidified atmosphere of 5% CO2 and 95% air for 90 min.
6. Plates are removed from incubator and 1 ml of the diluted complement is added to each plate.
7. Plates are then incubated another 30-45 minutes at 37° C. Plates are then removed from incubator and counted using oblique light.

[4] = system: murine spleen cells, Con A induced (T-cells); assay: Con A induced lymphocyte proliferation in mouse spleen cells in vitro; format: cell-based, mouse (Balb/C); settings: for activity at 25 µg/mL: drug 25,000 ng/ml; for effect on Con A induced proliferation (T-cell response), in words: in vitro
Text: as §1, §2, §3, §4, §5, §6, §7, §8, §9, §10
5. Con A (Calbiochem)--100 mg/ml NaCl injection solution (McGaw), filter, aliquot in 1 ml, and store at -70° C.
as §11, §12
as §13, with “dilution. After ~44 hours warm the RPMI to 37° C. in incubator. Dilute tritiated Thymidine 1:100 in warmed RPMI. Use Titertek to add 50 μl Thymidine to each well. Treat plates as above and incubate overnight (~18 hours).” for “dilution.”

[5] = Mus musculus, B-cell, LPS 5 μg/ml, read-out: LPS D/C (maximum values)
[6] = Mus musculus, Con A .375 μg/ml, read-out: Con A D/C (maximum values)
[7] = 0.05 mg/kg, *P ≤ 0.001 where starred
[8] = 0.5 mg/kg, *P ≤ 0.001 where starred
[9] = 5.0 mg/kg, *P ≤ 0.001 where starred, NPT 16485 N.S.

| Compound | activity at 25 µg/mL [2, 5] [%] | effect on antibody production in vivo, in words [3] | activity at 25 µg/mL [4, 6] [%] | % change from control, antibody response to SRBC [3, 7] | effect on B-cell response / LPS induced proliferation, in words [2] | % change from control, antibody response to SRBC [3, 8] | further results |
| --- | --- | --- | --- | --- | --- | --- | --- |
| c1ccc([C@H]2CN3CCSC3=N2)cc1 [Levamisole, reference compound] |  |  |  |  |  |  | production of theta positive (T) cells, in words [1]: does not possess this property |
| Nc1ncnc2c1nc1n2CCS1 [NPT 16422, 3-amino-7,8-dihydrothiazolo-[3,2e]-purine] | 37 | capable of inhibiting | 20 |  |  |  | effect on Con A induced proliferation (T-cell response), in words [4]: potent inhibitors; also recorded: capable of inhibiting |
| CSc1ncnc2c1nc1n2CCS1 [NPT 16439, 3-methylmercapto-7,8-dihydrothiazolo-[3,2e]-purine] |  | potent inhibitor of antibody production |  | -40% |  |  | activity at 4.5 µg/mL ([2]; Mus musculus, B-cell, drug 4,500 ng/ml, LPS 5 μg/ml, read-out: LPS D/C (maximum values)): 100%; effect on antibody production in vivo, in words ([3]; listed as 16439): capable of inhibiting; % change from control, antibody response to SRBC ([3]; dose = 0.2 mg/kg): -63%; activity at 4.5 µg/mL ([4]; Mus musculus, drug 4,500 ng/ml, Con A .375 μg/ml, read-out: Con A D/C (maximum values)): 57%; effect on Con A induced proliferation (T-cell response), in words [4]: potent inhibitors; effect on Con A induced proliferation (T-cell response), in words ([4]; listed as 16439): capable of inhibiting; effect on Con A induced proliferation (T-cell response), in words ([4]; listed as Ib): inhibiting the T-cell response |
| O=c1c2nc3n(c2nc2n1CCS2)CCS3 [NPT 16449, 6-hydroxy-Bis-(3,4-dihydrothiazolo-8,9-dihydrothiazolo)-[3,2e-2,3f]purine] |  | enhancement of production of specific antibodies in vivo |  | +183% | enhance B-cell proliferation | +59% | activity at 21 µg/mL ([2]; Mus musculus, B-cell, drug 21,000 ng/ml, LPS 5 μg/ml, read-out: LPS D/C (maximum values)): 157%; effect on B-cell response / LPS induced proliferation, in words ([2]; listed as IVa): stimulating the B-cell response; activity at 21 µg/mL ([4]; Mus musculus, drug 21,000 ng/ml, Con A .375 μg/ml, read-out: Con A D/C (maximum values)): 100% |
| Oc1c2ncnc-2nc2n1CCS2 [NPT 16450, 6-hydroxy-7,8-dihydrothiazolo-[3,2a]-purine] | 118 |  | 107 | -64% |  | +15% | % change from control, antibody response to SRBC [3, 9]: +36% |
| CSc1nc(O)c2nc3n(c2n1)CCS3 [NPT 16472, 3-hydroxy-5-methylmercapto-7,8-dihydrothiazolo-[3,2e]-purine] |  |  |  |  | stimulating the B-cell response |  | activity at 0.01 µg/mL ([2]; Mus musculus, B-cell, drug 10 ng/ml, LPS 5 μg/ml, read-out: LPS D/C (maximum values)): 131%; % change from control, antibody response to SRBC ([3]; dose = 0.035 mg/kg, P < 0.05): +13%; activity at 0.01 µg/mL ([4]; Mus musculus, drug 10 ng/ml, Con A .375 μg/ml, read-out: Con A D/C (maximum values)): 100% |
| Oc1ncnc2nc3n(c12)CCS3 [NPT 16485, 6-hydroxy-7,8-dihydrothiazolo-[2,3f]-purine] | 185 | enhancement of production of specific antibodies in vivo | 118 | +28% | enhance B-cell proliferation | +134% | effect on B-cell response / LPS induced proliferation, in words ([2]; listed as IIa): stimulating the B-cell response; % change from control, antibody response to SRBC [3, 9]: +1.7% |
